{"source": "paper PMC6838339", "about": "“Discovery of Novel Multi-target Inhibitor of angiotensin type 1 receptor and neprilysin inhibitors from Traditional Chinese Medicine” (Scientific Reports, 2019)", "biological_target": "T1, Angiotensin II type-1 receptor (AT1) (Homo sapiens, UniProt P30556)", "T1 construct": "gene AGTR1", "T1 sequence (P30556 1-359)": "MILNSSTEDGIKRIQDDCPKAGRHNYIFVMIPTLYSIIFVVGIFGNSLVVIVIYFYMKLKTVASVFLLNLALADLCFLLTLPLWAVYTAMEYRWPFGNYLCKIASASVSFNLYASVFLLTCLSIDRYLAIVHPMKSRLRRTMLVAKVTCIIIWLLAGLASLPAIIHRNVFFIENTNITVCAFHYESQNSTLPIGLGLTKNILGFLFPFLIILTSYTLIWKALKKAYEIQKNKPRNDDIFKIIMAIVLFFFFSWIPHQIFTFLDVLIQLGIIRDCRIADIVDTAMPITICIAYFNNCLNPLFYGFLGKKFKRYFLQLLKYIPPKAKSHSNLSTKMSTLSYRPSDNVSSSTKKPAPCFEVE", "experiment": "FLIPR calcium influx assay in HEK293/Ga15/AT1 cells, angiotensin II stimulated", "format": "cell-based", "data": [{"smiles": "Cc1cc(OC(=O)c2c(C)cc(OC(=O)c3c(C)cc(O)cc3O)cc2O)cc(O)c1C(=O)O", "note": "[gyrophoric acid]", "values": [{"measurement": "IC50", "result": 29.8, "unit": "µM"}]}]}
